Data from US20080306054A1, “Pharmaceutical Compounds” (ASTEX THERAPEUTICS LIMITED, priority 2005, published 2008).

Experiments:
[1] = molecular target: T1, Human Hsp90α N-terminal domain (Homo sapiens, UniProt P07900); assay: Isothermal titration calorimetry (ITC); type: binding; settings: pH 7.4
T1 construct: purification of the Human Hsp90α N-terminal domain were performed according to published methods; made in house
Description: The ability of the compounds of the invention to bind to human Hsp90 proteins was determined using isothermal titration calorimetry.
Isothermal titration calorimetry (ITC) experiments were performed with a VP-ITC titration calorimeter (Microcal Inc., Northampton, Mass., USA). […] All solutions were filtered and degassed prior to a titration being carried out. The enthalpy change resulting from each injection of ligand was obtained through integration of the calorimetric signal. Data were analysed using Origin 7.0 (Microcal Software Inc., Northampton, Mass.). Heats of dilution were estimated using the final injections of each individual titration and subtracted before data fitting. Different ITC experimental formats were employed in order to obtain compound dissociation constants (Kd's) over a wide range of affinities. […] In this type of experiment the stoichiometry parameter (N) was locked at 1 for data fitting.

HCT116 cell line = assay: Anti-proliferative activity, Alamar Blue assay; type: cell-based; settings: HCT-116, human colon cancer cell line HCT116, 72 hours with compound, read-out: IC50 values against the HCT116 cell line
Description: The anti-proliferative activities of compounds of the invention can be determined by measuring the ability of the compounds to inhibition of cell growth in a number of cell lines such as the human colon cancer cell line HCT116. Inhibition of cell growth is measured using the Alamar Blue assay (Nociari, M. M, Shalev, A., Benias, P., Russo, C. Journal of Immunological Methods 1998, 213, 157-167). The method is based on the ability of viable cells to reduce resazurin to its fluorescent product resorufin. For each proliferation assay cells are plated onto 96 well plates and allowed to recover for 16 hours prior to the addition of inhibitor compounds for a further 72 hours. At the end of the incubation period 10% (v/v) Alamar Blue is added and incubated for a further 6 hours prior to determination of fluorescent product at […]. In the case of the non-proliferating cell assay cells are maintained at confluence for 96 hour prior to the addition of inhibitor compounds for a further 72 hours. The number of viable cells is determined by Alamar Blue assay as before. Cell lines can be obtained from the ECACC (European Collection of cell Cultures).

Which Kd [1] does the source give for `CC(C)c1cc(C(=O)N2CCOC(CO)C2)c(O)cc1O` (stereo not shown) [Example 55, (2,4-dihydroxy-5-isopropyl-phenyl)-(2-hydroxymethyl-morpholin-4yl)-methanone] here?
The Kd was less than 1000 nM.

And the IC50 (HCT116 cell line)?
The IC50 was less than 10 µM.

How did the IC50 (HCT116 cell line) turn out when `CC(C)c1cc(C(=O)N2CCN(C)CC2)c(O)cc1O` [Example 66, (2,4-dihydroxy-5-isopropyl-phenyl)-(4-methyl-piperazin-1-yl)-methanone] was run?
The IC50 was less than 10 µM.

How did the Kd [1] turn out when `CC(C)c1cc(C(=O)N2CCOCC2)c(O)cc1O` [Example 29, (2,4-Dihydroxy-5-isopropyl-phenyl)-morpholin-4-yl-methanone] was run?
The Kd was less than 1000 nM.

`CC(C)c1cc(C(=O)N(C)c2ccc(CN3CCOCC3)cc2)c(O)cc1O` [Example 64, 2,4-dihydroxy-5-isopropyl-N-methyl-N-(4-morpholin-4-yl-methyl-phenyl)-benzamide] was tested. Which IC50 (HCT116 cell line) did it give?
Its IC50 is less than 10 µM.

`CC(C)c1cc(C(=O)N2CCC(CO)CC2)c(O)cc1O` [Example 58, (2,4-dihydroxy-5-isopropyl-phenyl)-(4-hydroxymethyl-piperidin-yl)-methanone] was tested. Which IC50 (HCT116 cell line) did it give?
Its IC50 is less than 10 µM.

For `CCN(C(=O)c1cc(C(C)C)c(O)cc1O)c1ccc(F)cc1` [Example 71, N-ethyl-N-(4-fluoro-phenyl)-2,4-dihydroxy-5-isopropyl-benzamide], which IC50 (HCT116 cell line) is on record?
Its IC50 is less than 10 µM.

With `CC(C)(C)c1cc(C(=O)N2CCOCC2)c(O)cc1O` [Example 54, (5-tert-Butyl-2,4-dihydroxy-phenyl)-morpholin-4-yl-methanone] as the molecule, how does the Kd [1] read?
Its Kd is less than 1000 nM.

And the IC50 (HCT116 cell line)?
Its IC50 is less than 10 µM.

Which results are given for `CC(C)c1cc(C(=O)N(c2ccc(F)cc2)C2CCOCC2)c(O)cc1O` [Example 73, N-(4-fluoro-phenyl)-2,4-dihydroxy-5-isopropyl-N-(tetrahydro-pyran-4-yl)-benzamide]?
Kd [1]: < 1000 nM; IC50 (HCT116 cell line): < 10 µM

Which Kd [1] does the source give for `CC(C)c1cc(C(=O)N2CCC(CCO)CC2)c(O)cc1O` [Example 57] here?
The Kd was less than 1000 nM.

And the IC50 (HCT116 cell line)?
Its IC50 is less than 10 µM.

Which IC50 (HCT116 cell line) does the source give for `CC(C)c1cc(C(=O)N(CCC#N)c2ccc(F)cc2)c(O)cc1O` [Example 72, N-(2-cyano-ethyl)-N-(4-fluoro-phenyl)-2,4-dihydroxy-5-isopropyl-benzamide] here?
The IC50 was less than 10 µM.

Which IC50 (HCT116 cell line) does the source give for `CC(C)c1cc(C(=O)N2CCS(=O)(=O)CC2)c(O)cc1O` [Example 68, (2,4-dihydroxy-5-isopropyl-phenyl)-(1,1-dioxo-1lambda*6*-thiomorpholin-4-yl)-methanone] here?
Its IC50 is less than 10 µM.

For `CC(C)c1cc(C(=O)N2CCN(C(=O)OC(C)(C)C)CC2)c(O)cc1O` [Example 69, 4-(2,4-dihydroxy-5-isopropyl-benzoyl)-piperazine-1-carboxylic acidtert-butyl ester], which IC50 (HCT116 cell line) is on record?
The IC50 was less than 10 µM.

Which IC50 (HCT116 cell line) does the source give for `CC1CN(C(=O)c2cc(C(C)C)c(O)cc2O)CC(C)O1` (stereo not shown) [Example 59, (2,4-dihydroxy-5-isopropyl-phenyl)-(2,6-dimethyl-morpholin-4-yl)-methanone] here?
The IC50 was less than 10 µM.

`CC(C)c1cc(C(=O)N(C)c2ccc(F)cc2)c(O)cc1O` [Example 70, N-(4-fluoro-phenyl)-2,4-dihydroxy-5-isopropyl-N-methyl-benzamide] was tested. Which IC50 (HCT116 cell line) did it give?
The IC50 was less than 10 µM.

With `CC(C)c1cc(C(=O)N2CCOCC2)ccc1O` [Example 20, (4-Hydroxy-3-isopropyl-phenyl)-morpholin-4-yl-methanone] as the molecule, how does the Kd [1] read?
The Kd was less than 1000 nM.

`CNC(=O)CN(C(=O)c1cc(C(C)C)c(O)cc1O)c1ccc(CN2CCOCC2)cc1` [Example 63, 2,4-dihydroxy-5-isopropyl-N-methylcarbamoylmethyl-N-(4-morpholin-4-ylmethyl-phenyl)-benzamide] was tested. Which IC50 (HCT116 cell line) did it give?
The IC50 was less than 10 µM.

`CCOC(=O)CC1CCN(C(=O)c2cc(C(C)C)c(O)cc2O)CC1` [Example 60, [1-(2,4-dihydroxy-5-isopropyl-benzoyl)-piperidin-4-yl)-acetic acidethyl ester] was tested. Which IC50 (HCT116 cell line) did it give?
Its IC50 is less than 10 µM.

With `CC(C)c1cc(C(=O)N2CCN(CCN(C)C)CC2)c(O)cc1O` [Example 56, (2,4-dihydroxy-5-isopropyl-phenyl)-[4-(2-dimethylamino-ethyl)-piperazin-1-yl]-methanone] as the molecule, how does the Kd [1] read?
The Kd was less than 1000 nM.

And the IC50 (HCT116 cell line)?
The IC50 was less than 10 µM.

What does the source list for `CC(C)c1cc(C(=O)N(Cc2ccccc2)c2ccc(CN3CCOCC3)cc2)c(O)cc1O` [Example 65, N-benzyl-2,4-dihydroxy-5-isopropyl-N-(4-morpholin-4-ylmethyl-phenyl)-benzamide]?
Kd [1]: < 1000 nM; IC50 (HCT116 cell line): < 10 µM

`CC(C)c1cc(C(=O)N2CC[C@@H](O)C2)c(O)cc1O` (stereo in doubt) [Example 61, (2,4-dihydroxy-5-isopropyl-phenyl)-(3-hydroxy-pyrrolidin-1yl)-methanone] was tested. Which IC50 (HCT116 cell line) did it give?
The IC50 was less than 10 µM.

Which IC50 (HCT116 cell line) does the source give for `CNC(=O)CN(C(=O)c1cc(C(C)C)c(O)cc1O)c1ccc(F)cc1` [Example 62, N-(4-fluoro-phenyl)-2,4-dihydroxy-5-isopropyl-N-methylcarbamoylmethyl-benzamide] here?
The IC50 was less than 10 µM.

How did the IC50 (HCT116 cell line) turn out when `CC(C)(C)c1cc(C(=O)N2CCC(O)(c3ccccc3)CC2)ccc1O` [Example 37, (3-tert-Butyl-4-hydroxy-phenyl)-(4-hydroxy-4-phenyl-piperidin-1-yl)-methanone] was run?
The IC50 was less than 10 µM.
